Results on one compound are retold here after US10799484B2, “Compositions and methods for treating synucleinopathies” (priority 2017, dated 2020).

Series [1] concerns dopaminergic neurons in a mouse PD model. The settings on record: cited from earlier work.
In the next series the test system is patients. To be noted: 5 mg/day, cited from earlier work.
Series [2] deals with synuclein oligomer formation (Homo sapiens, UniProt P37840). The settings on record: in vitro; cited from earlier work.
In another series the test system is PD patients. The settings on record: doses approved for motor symptoms of PD; 535 PD patients; cited from earlier work.
The subject of another series is humans. To be noted: for MTD-1 (Pramipexole alone): Period 1. Here is the method:
The ability of the 5HT3-antagonists to prevent the gastro-intestinal (GI) adverse effects (AEs) of pramipexole in humans was tested.
A Phase I study was conducted in subjects receiving a single oral dose of pramipexole dihydrochloride monohydrate (“pramipexole”) with or without a single oral dose of ondansetron hydrochloride dihydrate (“ondansetron”). The study was single center, single-blind study.
Following enrollment in the study, participants received single increasing oral doses of pramipexole given once daily in the morning (Period 1 of the study). The starting dose of pramipexole was 0.5 mg and the dose was increased daily by 0.5 mg increments. Once a subject had reached his/her first intolerable dose (FID-1), upward dose escalation was discontinued.
When a subject reached FID-1 on pramipexole alone, the subject was washed out for at least 5 days, and then entered Period 2 of the study during which the subject received single daily oral doses of pramipexole starting at 0.5 mg and titrated upward by 0.5 mg increments, together with oral ondansetron hydrochloride dihydrate (10 mg, equivalent to 8 mg ondansetron base) until subjects again reached an intolerable dose defined as above. The FID on oral pramipexole plus oral ondansetron was referred to as FID-2.
If a subject reached FID-2 during Period 2 at the same or lower dose than FID-1, and providing the investigator judged there were no safety issues and the subject was consenting, the subject received the same dose of pramipexole as the FID-2 dose together with a higher dose of oral ondansetron hydrochloride dihydrate (20 mg, equivalent to 16 mg ondansetron base) on the next day and the protocol specified that said subject should continue with the remainder of the dose titration with the higher dose of oral ondansetron hydrochloride dihydrate (20 mg, equivalent to 16 mg ondansetron base) until they reach the intolerable dose (FID2+). All other provisions of the protocol remained unchanged. Assessments were the same as those planned for the dose escalation day.
On each study day, subjects were followed up for up to 8 hours following drug administration for AEs, vital signs, ECGs. In addition, a laboratory panel was taken at screening and at the end of the study.

The test system of series [3] is human neuroblastoma SH-SY5Y cells. The settings on record: cited from earlier work.
Series [4] deals with human wild-type alpha-synuclein (Homo sapiens, UniProt P37840). To be noted: in vitro; by H2O2 plus cytochrome c; cited from earlier work.

Read-outs that look alike come from different tables or passages of the source.

Turning to `CCCN[C@H]1CCc2nc(N)sc2C1` [Pramipexole, (S)-6-propylamino-4,5,6,7-tetrahydro-1,3-benzothiazole-2-amine], in series [1], the “toxic effects of rotenone on dopaminergic neurons” value is listed as “inhibits”. For the same compound, the immunoreactivity for alpha-synuclein entry in series [1] (rotenone) is “reducing”. Moreover, the patients with nausea in the series on patients was 76%. Also, in the series on patients, the patients with vomiting is 39%. Also, the “patients not able to complete the study” value in the series with patients (presumably because of intolerable GI adverse events) is 36%. Also, in series [2], the synuclein oligomer formation entry is “diminishes”. Further, in the series with PD patients, the “neuroprotective (disease modifying) activity” value is reported as “failed to evidence”. Also, in the series on humans (in vivo), the dose limiting toxicity result was “gastro-intestinal adverse events”. The “MTD-1 (Pramipexole alone)” value in the series on humans (subject 1001) is 2.0 mg; with humans (subject 1005), 1.5 mg; in the series with humans (subject 1006, cell wraps: NA (not tolerated at 0.5 mg), the starting dose), “NA (not tolerated at”; in the series with humans (subject 1007) it was 4.0 mg; in the series on humans (subject 1008), 1.0 mg. The aggregation of alpha-synuclein entry in series [3] is “inhibit”. In addition, the “oligomerization of human wild-type alpha-synuclein” value in series [4] is “decreases”.
